The text below walks through data of ChEMBL document CHEMBL1133240, “Michael adducts of ascorbic acid as inhibitors of protein phosphatase 2A and inducers of apoptosis” (Bioorg Med Chem Lett, 2000).

The subject of data set [1] is HIT. In words: Compound was evaluated for inhibitory effect against casein dephosphorylation (casein is a substrate of PP-2A) by a HIT cell extract at 1000 uM; Some inhibition. In kind it is functional, cell-based. The conditions noted are these: Homo sapiens.
The test system of data set [2] is HIT. In words: Inhibitory concentration against casein dephosphorylation (casein is a substrate of PP-2A) by a HIT cell extract. In kind it is functional, cell-free. Conditions: Homo sapiens.
Data set [3] in a line: Lethal dose was evaluated in parental HIT cells. Conditions: read-out: LC50 (the source's name). In kind it is toxicity, cell-based.
Data set [4] is described as follows: Compound was evaluated for inhibitory effect against casein dephosphorylation (casein is a substrate of PP-2A) by a HIT cell extract at 100 uM. In kind it is functional. The conditions noted are these: Homo sapiens.
Data set [5] is described as follows: Compound was evaluated for inhibitory effect against casein dephosphorylation (casein is a substrate of PP-2A) by a HIT cell extract with Okadaic acid (225 nM) or Cantharidic acid (100 uM). In kind it is functional, cell-based, Homo sapiens.
Data set [6] is described as follows: Lethal dose was evaluated in HIT 100R cells. In kind it is toxicity, cell-based. Conditions: human, read-out: LC50 (the source's name).
Data set [7] can be described thus: Compound was evaluated for inhibitory effect against casein dephosphorylation (casein is a substrate of PP-2A) by a HIT cell extract relative to cantharidic acid (100 uM). The data set is classed as functional, cell-based, Homo sapiens.

Consider `CCCCCCCCCCCCCCCC(=O)OC[C@@H](O)[C@H]1OC(=O)[C@]2(CCC(OC(C)C)O2)C1=O` (some centres undefined), for which the inhibition result in the data set on HIT [1] is on record as “Some inhibition”.
As for `C=C1[C@@H](O)[C@@H]2O[C@]3(CC[C@H](/C=C/[C@@H](C)[C@@H]4CC(C)=C[C@@]5(O[C@H](C[C@@](C)(O)C(=O)O)CC[C@H]5O)O4)O3)CC[C@H]2O[C@@H]1[C@@H](O)C[C@H](C)[C@H]1O[C@@]2(CCCCO2)CC[C@H]1C`, the Concentration with HIT [2] was 225 nM.
Turning to `CCCCCCCCCCCCCCCC(=O)OC[C@@H](O)[C@H]1OC(=O)[C@]2(O)CCC(O)O[C@]12OC` (some centres undefined), the CC50 came to 100 µM in data set [3] and 126 µM in data set [6]. The compound further displayed an inhibition at 100 µM in data set [4] of 40%. The compound also gave an IC50 in data set [5] of 175 µM.
With `O=C1O[C@@H]2[C@@H](O)CO[C@]2(O)[C@@]1(O)C(C[N+](=O)[O-])c1ccc(Cl)cc1` (some centres undefined), the figures for the CC50 in data set [3] and in data set [6] were 5.6 µM and 7.9 µM, respectively. Half-maximal inhibition in data set [7] (IC50) required 70 µM.
